In patent publication US5922707A, “Oxazolidinone antibacterial agent with tricyclic substituents” (Pharmacia & Upjohn Company, priority 1997, dated 1999) one finds MIC data, which are given here for twelve compounds.

Type in all cases: cell-based
In experiment [1] the test system is Staphylococcus aureus UC ® No. 9213. The experiment is described as follows: In vitro antimicrobial activity, MIC by agar dilution, S. aureus 9213. The note with it: UC9213, Mueller Hinton agar + 1% Supplement C, 35° C., 18 hours, read-out: Minimum inhibitory concentration (MIC), S. a. 9213. As for the experimental part:
(§1) Antimicrobial activity was tested in vitro using the procedure described in National Committee for Clinical Laboratory Standards. Methods for dilution antimicrobial susceptibility tests for bacteria that grow aerobically--third edition; Approved Standard. NCCLS Document M7-A3. Villanova, Pa.: NCCLS; 1993. Minimum inhibitory concentration (MIC) values were determined by an agar dilution method (1) in which the test medium was Mueller Hinton agar (MHA; Difco Laboratories, Detroit, Mich.) supplemented with 1% Supplement C (Difco). Serial two-fold dilutions of each compound were prepared using 1.0 ml volumes of sterile distilled water. To each 1.0 ml aliquot was added 9.0 ml of molten agar medium. The drug-supplemented agar was mixed, poured into 15×100 mm petri dishes, and allowed to solidify and dry at room temperature prior to inoculation. The test cultures were grown aerobically overnight at 35° C. on MHA; streptococcal strains were grown on Trypticase Soy Blood Agar Base EH (Difco) supplemented with 5% defibrinated sheep blood (BBL, Becton Dickinson Company, Cockeysville, Md.). Colonies were harvested with a sterile swab, and cell suspensions were prepared in Trypticase Soy Broth (TSB; Becton Dickinson Company) to equal the turbidity of a 0.5 McFarland standard. A 1:19 dilution of the suspension was made in TSB; this diluted suspension constituted the inoculum for the assay. The plates containing the drug-supplemented agar were inoculated with a 0.001 ml drop of the cell suspensions using a Steers replicator (Melrose Machine Shop, Woodlyn, Pa.), yielding approximately 10^4 -10^5 cells per spot. The plates were incubated aerobically at 35° C. for 18 hours and the MIC was read as the lowest concentration of drug that inhibited visible growth of the organism. The growth of a single colony was considered to be negative.
On the technique in general: In agar dilution the substance is mixed into plates at graded concentrations.

Experiment [2] deals with Staphylococcus aureus UC ® No. 6685. The experiment is described as follows: In vitro antimicrobial activity, MIC by agar dilution, S. aureus 6685. The note with it: UC6685, Mueller Hinton agar + 1% Supplement C, 35° C., 18 hours, read-out: Minimum inhibitory concentration (MIC), S. a. 6685. How it is done: as §1
Experiment [3] deals with Streptococcus Pneumoniae UC ® No. 9912. Put plainly: In vitro antimicrobial activity, MIC by agar dilution, S. pneumoniae 9912. The conditions noted are these: UC9912, Mueller Hinton agar + 1% Supplement C, 35° C., 18 hours, read-out: Minimum inhibitory concentration (MIC), S. p. 9912. How it is done:
as §1

Where only a bound is given, the exact number is not on record here.

As to `CC(=O)NC[C@H]1CN(c2ccc3c(c2)OCC2CN(C(=O)OCc4ccccc4)CCN32)C(=O)O1` (stereo partly drawn) [Example 1, 8-[5-(S)-[(acetylamino)methyl]-2-oxo-3-oxazolidinyl]-1,2,4a, 5-tetrahydropyrazino[2,1-c] [1, 4]benzoxazine-3(4 H)-carboxylic acid phenylmethyl ester], the MIC in experiment [1] amounted to 8 µg/mL; in experiment [2], 4 µg/mL; in experiment [3], 1 µg/mL.

As for `CC(=O)NC[C@H]1CN(c2ccc3c(c2)OCC2CN(C(=O)COCc4ccccc4)CCN32)C(=O)O1` (stereo partly drawn) [Example 2, N-[[3-[1,2,3,4,4a, 5-Hexahydro-3-[(phenylmethoxy)acetyl]pyrazino[2,1-c] [1, 4]benzoxazin-8-yl]-2-oxo-5-(S)-oxazolidinyl]methyl]-acetamide], the MIC in experiment [1] turned out to be 8 µg/mL; in experiment [2], 8 µg/mL; in experiment [3], 2 µg/mL.

Take `COC(=O)N1CCN2c3ccc(N4C[C@H](CNC(C)=O)OC4=O)cc3OCC2C1` (stereo partly drawn) [Example 3, 8-[5-(S)-[(Acetylamino)methyl]-2-oxo-3-oxazolidinyl]-1,2,4a, 5-tetrahydropyrazino[2,1-c] [1, 4]benzoxazine-3(4 H)-carboxylic acid methyl ester]: the MIC in experiment [1] came out at 8 µg/mL; in experiment [2], 4 µg/mL; in experiment [3], 1 µg/mL.

`CC(=O)NC[C@H]1CN(c2ccc3c(c2)OCC2CN(C(=O)CO)CCN32)C(=O)O1` (stereo partly drawn) [Example 4]: the values for the MIC in experiment [1], in experiment [2] and in experiment [3] were 8 µg/mL, 8 µg/mL and 1 µg/mL, respectively.

In the case of `CC(=O)NC[C@H]1CN(c2ccc3c(c2)OCC2CN(C(=O)c4ccno4)CCN32)C(=O)O1` (stereo partly drawn) [Example 5, N-[[3-[1,2,3,4,4a, 5-Hexahydro-3-(5-isoxazolylcarbonyl)pyrazino[2,1-c] [1, 4]benzoxazin-8-yl]-2-oxo-5-(S)-oxazolidinyl]methyl]-acetamide], the MIC is 4 µg/mL in experiment [1], 2 µg/mL in experiment [2] and less than 0.5 µg/mL in experiment [3].

Consider `CC(=O)NC[C@H]1CN(c2ccc3c(c2)OCC2CN(C(=O)c4cc5ccccc5[nH]4)CCN32)C(=O)O1` (stereo partly drawn) [Example 6, N-[[3-[1,2,3,4,4a, 5-hexahydro-3-(1 H-indol-2-ylcarbonyl)pyrazino[2,1-c] [1, 4]benzoxazin-8-yl]-2-oxo-5-(S)-oxazolidinyl]methyl]-acetamide], for which the figures for the MIC in experiment [1], in experiment [2] and in experiment [3] were 8 µg/mL, 4 µg/mL and 1 µg/mL, respectively.

Turning to `CC(=O)NC[C@H]1CN(c2ccc3c(c2)OC[C@H]2CN(C(=O)OCc4ccccc4)CCN32)C(=O)O1` [Example 7a, (R)-8-[5-(S)-[(acetylamino)methyl]-2-oxo-3-oxazolidinyl]-1,2,4a, 5-tetrahydropyrazino[2,1-c][1,4]benzoxazin-3(4 H)-carboxylic acid phenylmethyl ester], the MIC amounted to 8 µg/mL in experiment [1], 4 µg/mL in experiment [2] and 1 µg/mL in experiment [3].

On to `CC(=O)NC[C@H]1CN(c2ccc3c(c2)OC[C@@H]2CN(C(=O)OCc4ccccc4)CCN32)C(=O)O1` [Example 7b, (S)-8-[5-(S)-[(acetylamino)methyl]-2-oxo-3-oxazolidinyl]-1,2,4a, 5-tetrahydropyrazino[2,1-c][1,4]benzoxazin-3(4H)-carboxylic acid phenylmethyl ester], for which the MIC in experiment [1] was 8 µg/mL; in experiment [2], 8 µg/mL; in experiment [3] it was 2 µg/mL.

For the compound `COC(=O)N1CCN2c3ccc(N4C[C@H](CNC(C)=O)OC4=O)cc3OC[C@H]2C1` [Example 8a, (R)-8-[5-(S)-[(acetylamino)methyl]-2-oxo-3-oxazolidinyl]-1,2,4a, 5-tetrahydropyrazino[2,1-c] [1, 4]benzoxazine-3(4 H)-carboxylic acid methyl ester], the MIC in experiment [1] came to 4 µg/mL; in experiment [2], 4 µg/mL; in experiment [3] it was 0.5 µg/mL.

For `COC(=O)N1CCN2c3ccc(N4C[C@H](CNC(C)=O)OC4=O)cc3OC[C@@H]2C1` [Example 8b, (S)-8-[5-(S)-[(acetylamino)methyl]-2-oxo-3-oxazolidinyl]-1,2,4a, 5-tetrahydropyrazino[2,1-c] [1, 4]benzoxazine-3(4 H)-carboxylic acid methyl ester], the MIC in experiment [1] turned out to be 8 µg/mL; in experiment [2], 8 µg/mL; in experiment [3] it was 2 µg/mL.

Take `CC(=O)NC[C@H]1CN(c2ccc3c(c2)OC[C@H]2CCCCN32)C(=O)O1` [Example 9a, (R)-N-[[[1,2,3,4,4a, 5-hexahydropyridino[2,1-c][1, 4]benzoxazin-8-yl]-2-oxo-5-(S)-oxazolidinyl]methyl]-acetamide]: the MIC in experiment [1] was 16 µg/mL; in experiment [2] it was 8 µg/mL; in experiment [3], 2 µg/mL.

As to `CC(=O)NC[C@H]1CN(c2ccc3c(c2)OC[C@@H]2CCCCN32)C(=O)O1` [Example 9b, (S)-N-[[[1,2,3,4,4a, 5-hexahydropyridino[2,1-c][1, 4]benzoxazin-8-yl]-2-oxo-5-(S)-oxazolidinyl]methyl]-acetamide], the MIC in experiment [1] was determined as 8 µg/mL; in experiment [2] it was 4 µg/mL; in experiment [3] it was 2 µg/mL.
